Source: publication PMC6458850, “CXXC5 mediates growth plate senescence and is a target for enhancement of longitudinal bone growth” (Life Science Alliance, 2019)

Key:
C28/I2 cells = assay: CXXC5/β-catenin expression and chondrogenic markers in C28/I2 cells; type: cell-based, human
Protocol: (§1) Figure 2. The effects of estrogen on CXXC5 expression and the mediation of growth plate senescence. (A) Immunoblotting (upper) and quantitative analyses (mean ± SEM, n = 3) (lower) in C28/I2 cells treated with 100 nM E2 (17β-estradiol) for 0, 1, 3, 6, 24, 48, or 72 h. (B) Immunocytochemical staining (left) and quantitative analyses of the fluorescent intensity (mean ± SEM, n = 3; t test, **P < 0.005 and ***P < 0.0005) (right) in C28/I2 cells treated with 100 nM E2 for 40 h. Scale bars, 100 μm. (C–E) Tibial organ cultures (E15.5) incubated with 100 nM E2 for 6 d. Representative images at 6 d (C, left) and quantitative analyses of the growth changes (mean ± SEM, n = 5; t test, ***P < 0.0005) (C, right). Scale bar, 1 mm. H&E staining (D, left) and quantification of each zone height (mean ± SEM, n = 5; t test, *P < 0.05 and **P < 0.005) (D, right) in the growth plate. Scale bar, 200 μm. IHC analyses of β-catenin and CXXC5 (E). Scale bars, 50 μm. (F) 3-wk-old Cxxc5^+/+ and Cxxc5^−/− mice were treated with E2 cypionate (70 μg/kg) by i.m. injection once a week for 3 wk (n = 3–4). Representative images of H&E staining and IHC analyses for BrdU, β-catenin, and CXXC5 in the growth plates of proximal tibiae are shown. The area within the dashed lines indicates the growth plate zone. Black and white scale bars, 50 μm. Yellow scale bar, 20 μm. RZ, resting zone; PZ, proliferative zone; HZ, hypertrophic zone.
Figure S7. The effects of KY19382 on chondrocyte proliferation and differentiation. (A) ATDC5 cells treated with 0.01 or 0.1 μM concentrations of KY19382 were incubated for 48 h followed by treatment with 50 μM BrdU for 12 h before harvesting. BrdU incorporation was visualized by immunofluorescent staining using a specific BrdU antibody (left). BrdU-positive cells were quantified (mean ± SEM, n = 3; ANOVA, P = 7.8 × 10^−5; Tukey’s post-hoc test, *P < 0.05 and ***P < 0.0005) (right). Scale bar, 100 μm. (B) qRT-PCR analyses of mRNA levels of chondrogenic differentiation markers in ATDC5 cells incubated with 0.1 μM KY19382 for 3 d in three-dimensional alginate beads after transfection with control siRNA or Ctnnb1 siRNA (mean ± SEM, n = 3; t test, *P < 0.05, **P < 0.005, and ***P < 0.0005). (C) qRT-PCR analyses of mRNA levels of chondrogenic differentiation markers in C28/I2 cells incubated with 1 μM KY19382 for 3 d in three-dimensional alginate beads (mean ± SEM, n = 3; t test, *P < 0.05 and ***P < 0.0005). n.s., no significance.
The mouse chondrogenic cell line, ATDC5, was obtained from the RIKEN Cell Bank. The human juvenile costal chondrocyte cell line, C28/I2, was provided by Dr. W U Kim (Catholic University, Korea). HEK293-TOP cells (HEK293 cells containing the chromosomally incorporated TOPFlash gene) were provided by Dr. S Oh (Kuk Min University, Korea). […]

tibiae (E15.5) = assay: Tibial organ culture (ex vivo); design: species or system mouse; conditions: 100 nM, 6 d
Protocol: as §1, with “shown. […] Tibial length was measured before treatment and after 6 d in culture.” for “shown.”, “samples were then prepared for paraffin embedding, sectioned,” for “area within the dashed lines indicates the growth plate zone. Black”, “analyzed by H&E and IHC staining.” for “white scale bars, 50 μm. Yellow scale bar, 20 μm. RZ, resting zone; PZ, proliferative zone; HZ, hypertrophic zone.”

C[C@]12CC[C@@H]3c4ccc(O)cc4CC[C@H]3[C@@H]1CC[C@@H]2O [E2, 17β-estradiol]
time of maximal CXXC5 level (C28/I2 cells; 100 nM): 24 h | CXXC5 expression (C28/I2 cells; 100 nM, 0-72 h): induced | β-catenin level (C28/I2 cells; 100 nM, after 24 h): reduced | tibial length in ex vivo tibial culture (tibiae (E15.5)): reduced tibial length

CON=C1C(=C2C(=O)Nc3cc(Cl)c(Cl)cc32)Nc2ccccc21 [KY19382, 5,6-dichloroindirubin-3′-methoxime]
mRNA levels of chondrogenic markers (C28/I2 cells; 1 μM, 3 d, alginate beads): up-regulated
